Assay results as given in patent US6835382B2, “Ii peptide therapeutics to enhance antigen presentation” (University of Massachusetts, priority 1996, dated 2004).
Positions of bridges follow the written chain, without caps; N, C: chain ends. Non-standard residues stand in square brackets, D forms with d. No end group written: not given here. hArg = N=C(N)NCCCC[C@H](N)C(=O)O; Cit = NC(=O)NCCC[C@H](N)C(=O)O

Experiments:
[1] = tested on: murine E^k MHC class II allele; assay: simultaneous assay, E^k allele (CH27 APC, TPc9.1 T hybridoma, THMCC82-103 or PGCC81-104); type: cell-based
How it was run: (§1)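 Read-out is [3H]TdR incorporation into HT-2 indicator cells exposed to supernatant from a 24 h primary culture. That culture combined mitomycin C-treated APC (5×10^6 cells/mL, 0.025 mg/mL mitomycin C, 20 min, 37° C), peptide, effector compound and T hybridoma, all added at once.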

[2] = biological target: T1, murine E^d MHC class II allele (Mus musculus, UniProt P01904+P01915); assay: simultaneous assay, E^d allele (A20 APC, G28.C9 T hybridoma, HEL106-116; HT-2 [3H]TdR readout); type: cell-based; parameters: The A20 and CH27 B cell lymphoma lines express H-2^d and H-2^k alleles, respectively; endogenous in cells; host or cells: A20 B cell lymphoma (mitomycin C-treated or paraformaldehyde-fixed)
T1 sequence (P01904 26-255): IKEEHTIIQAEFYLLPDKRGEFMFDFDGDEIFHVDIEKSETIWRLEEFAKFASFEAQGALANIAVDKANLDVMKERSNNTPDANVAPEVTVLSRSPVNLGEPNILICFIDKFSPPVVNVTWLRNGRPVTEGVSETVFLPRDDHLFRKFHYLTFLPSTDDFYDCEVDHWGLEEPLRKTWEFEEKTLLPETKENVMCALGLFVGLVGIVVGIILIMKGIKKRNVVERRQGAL
T1 sequence (P01915 27-264 limits assumed): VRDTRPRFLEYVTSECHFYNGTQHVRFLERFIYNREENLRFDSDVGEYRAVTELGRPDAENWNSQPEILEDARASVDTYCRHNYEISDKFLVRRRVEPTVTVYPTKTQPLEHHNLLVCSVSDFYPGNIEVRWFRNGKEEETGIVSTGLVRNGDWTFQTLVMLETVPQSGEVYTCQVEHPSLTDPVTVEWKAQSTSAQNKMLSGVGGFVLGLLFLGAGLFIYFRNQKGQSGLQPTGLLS
How it was run: as §1

[3] = Table 15, AE peptide 16 μM, supernatant 1:4
[4] = Table 16, AE peptide 4 μM, supernatant 1:8
[5] = Table 18, AE peptide 64 μM, supernatant 1:4

Substance	Times Baseline Response, E^k [1, 4]	Times Baseline Response, E^d [2, 4]	also measured
Ac-A[Cit]NKNPK-NH2 [AE351]			Times Baseline Response, E^k [1, 3]: 1.6; Times Baseline Response, E^d [2, 3]: 0.8
Ac-FK HArg MYP Cit-NH2 [AE371]	1.5	1.6	
Ac-LK HArg KYPK-NH2 [AE363]	1.7	1.6	
Ac-LKMKYPK-NH2 [AE362]	1.3	1.2	
Ac-LR HArg KYP Cit-NH2 [AE366]	49.4	7.3	
Ac-LR HArg MYPK-NH2 [AE365]	20.1	6.1	
Ac-LR Orn K HArg PK-NH2 [AE340]			Times Baseline Response, E^k [1, 3]: 39.5; Times Baseline Response, E^d [2, 3]: 46.6
Ac-LRLKYPN-NH2 [AE368]	11.2	9.4	
Ac-LRMKLPK (lactam 4-C) [AE382]			Times Baseline Response, E^k [1, 5]: 18.1; activity in simultaneous assay on E^k, in words ([1]; Tables 2 and 18): moderately active; Times Baseline Response, E^d [2, 5]: 1.9; activity in simultaneous assay on E^d, in words ([2]; text on Table 18): relatively inactive
Ac-LRMKNPF-NH2 [AE350]			Times Baseline Response, E^k [1, 3]: 24.2; Times Baseline Response, E^d [2, 3]: 28.6
Ac-LRMKYPN-NH2 [AE370]	7.5	8.7	
Ac-LRMKYP[Cit]-NH2 [AE364]	16.6	14.0	
Ac-LRMMYP[Cit]-NH2 [AE367]	6.6	1.0	
Ac-L[hArg]LKYPK-NH2 [AE361]	4.6	8.2	
Ac-L[hArg]MKYPK-NH2 [AE360]	2.5	5.8	
cyclic LRMKLPK (bridge (positions not given here); also: cyclic, ring type not given here) [AE381, “head-to-tail” cyclization from the amino-terminus to the carboxyl-terminus of AE114]			Times Baseline Response, E^k [1, 5]: 0.56; Times Baseline Response, E^d [2, 5]: 2.1; activity in simultaneous assay on E^d and E^k, in words ([2]; Tables 12 and 18): weak
